Results reported in US9260439B2, “Dihydropyrrolopyrimidine derivatives” (PFIZER INC., priority 2014, dated 2016).

Molecular target: truncated PI3Kα (p110α/iSH2 p85α) (Homo sapiens (Human), UniProt P42336)
Assay: PI3KA_Act fluorescence polarization kinase assay (Ki)
Assay type: biochemical
Conditions: 1 mM ATP
Outline: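 Ki values result from fitting fluorescence polarization signals to the Morrison equation for tight-binding competitive inhibitors. The detector was GST-Grp1 PH domain with TAMRA-PIP3, read after a 30 min room-temperature reaction of 0.5 nM truncated PI3Kα and 30 μM PIP2 at pH 7.4 in HEPES/NaCl/MgCl2/DTT/CHAPS buffer. Compounds were tested as 12-point 3-fold dilutions from 3 μM.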

truncated PI3Kα (p110α/iSH2 p85α), sequence (P42336 whole entry, the tested form may be a part): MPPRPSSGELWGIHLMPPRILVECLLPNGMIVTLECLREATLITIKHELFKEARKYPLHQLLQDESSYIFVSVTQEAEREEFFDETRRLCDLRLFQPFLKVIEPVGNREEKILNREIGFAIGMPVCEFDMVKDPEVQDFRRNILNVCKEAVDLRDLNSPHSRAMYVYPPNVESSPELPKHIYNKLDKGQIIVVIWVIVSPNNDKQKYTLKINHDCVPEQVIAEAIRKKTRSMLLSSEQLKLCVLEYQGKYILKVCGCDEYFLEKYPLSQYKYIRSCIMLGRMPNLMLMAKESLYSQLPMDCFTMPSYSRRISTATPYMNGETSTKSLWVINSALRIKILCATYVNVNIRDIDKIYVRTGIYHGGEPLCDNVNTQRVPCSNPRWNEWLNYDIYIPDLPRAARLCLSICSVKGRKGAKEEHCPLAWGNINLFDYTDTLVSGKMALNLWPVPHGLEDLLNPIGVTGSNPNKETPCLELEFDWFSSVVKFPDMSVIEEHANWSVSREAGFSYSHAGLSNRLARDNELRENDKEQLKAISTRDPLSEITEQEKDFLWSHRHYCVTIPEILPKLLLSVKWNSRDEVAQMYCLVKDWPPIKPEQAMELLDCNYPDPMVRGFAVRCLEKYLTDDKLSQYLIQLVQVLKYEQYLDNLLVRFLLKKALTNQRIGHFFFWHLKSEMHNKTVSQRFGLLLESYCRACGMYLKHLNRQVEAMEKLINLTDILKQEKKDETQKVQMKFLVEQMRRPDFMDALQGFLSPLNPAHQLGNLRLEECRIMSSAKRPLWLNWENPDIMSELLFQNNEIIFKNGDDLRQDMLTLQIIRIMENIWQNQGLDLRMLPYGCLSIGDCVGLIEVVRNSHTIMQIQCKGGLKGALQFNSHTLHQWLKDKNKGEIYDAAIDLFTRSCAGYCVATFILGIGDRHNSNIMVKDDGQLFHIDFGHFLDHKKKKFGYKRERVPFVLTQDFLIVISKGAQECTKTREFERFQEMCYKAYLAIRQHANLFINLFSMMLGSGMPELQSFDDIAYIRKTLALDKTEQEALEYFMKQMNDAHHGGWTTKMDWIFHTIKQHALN

Row | Compound | PI3KA_Act Ki
1 | C[C@]1(N2CCc3c(-c4cnc(N)nc4)nc(N4CCOCC4)nc32)CCN(C(=O)[C@H]2CCC(=O)N2)C1 [Example 379, (5R)-5-({(3S)-3-[4-(2-aminopyrimidin-5-yl)-2-(morpholin-4-yl)-5,6-dihydro-7H-pyrrolo[2,3-d]pyrimidin-7-yl]-3-methylpyrrolidin-1-yl}carbonyl)pyrrolidin-2-one] | 61 pM
2 | C[C@]1(N2CCc3c(-c4cnc(N)nc4)nc(N4CCOCC4)nc32)CCN(C(=O)C2(N)CCOC2)C1.Cl (stereo partly drawn) [Example 380, {(3S)-3-[4-(2-aminopyrimidin-5-yl)-2-(morpholin-4-yl)-5,6-dihydro-7H-pyrrolo[2,3-d]pyrimidin-7-yl]-3-methylpyrrolidin-1-yl}(3-aminotetrahydrofuran-3-yl)methanone hydrochloride] | 30 pM
3 | C[C@]1(N2CCc3c(-c4cnc(N)nc4)nc(N4CCOCC4)nc32)CCN(C(=O)[C@H]2CCCN2)C1.Cl [Example 382, {(3S)-3-[4-(2-aminopyrimidin-5-yl)-2-(morpholin-4-yl)-5,6-dihydro-7H-pyrrolo[2,3-d]pyrimidin-7-yl]-3-methylpyrrolidin-1-yl}[(2R)-pyrrolidin-2-yl]methanone hydrochloride] | <18 pM
4 | C[C@]1(N2CCc3c(-c4cnc(N)nc4)nc(N4CCOCC4)nc32)CCN(C(=O)[C@]2(F)CCNC2)C1.Cl [Example 383, {(3S)-3-[4-(2-aminopyrimidin-5-yl)-2-(morpholin-4-yl)-5,6-dihydro-7H-pyrrolo[2,3-d]pyrimidin-7-yl]-3-methylpyrrolidin-1-yl}[(3S)-3-fluoropyrrolidin-3-yl]methanone hydrochloride] | <18 pM
5 | C[C@]1(N2CCc3c(-c4cnc(N)nc4)nc(N4CCOCC4)nc32)CCN(C(=O)[C@@]2(F)CCNC2)C1.Cl [Example 384] | <18 pM
6 | Cn1nccc1C(=O)N1CC[C@](C)(N2CCc3c(-c4cnc(N)nc4)nc(N4CCOCC4)nc32)C1 [Example 385, {(3S)-3-[4-(2-aminopyrimidin-5-yl)-2-(morpholin-4-yl)-5,6-dihydro-7H-pyrrolo[2,3-d]pyrimidin-7-yl]-3-methylpyrrolidin-1-yl}(1-methyl-1H-pyrazol-5-yl)methanone] | <18 pM
7 | Cc1n[nH]cc1C(=O)N1CC[C@](C)(N2CCc3c(-c4cnc(N)nc4)nc(N4CCOCC4)nc32)C1 [Example 386, {(3S)-3-[4-(2-aminopyrimidin-5-yl)-2-(morpholin-4-yl)-5,6-dihydro-7H-pyrrolo[2,3-d]pyrimidin-7-yl]-3-methylpyrrolidin-1-yl}(3-methyl-1H-pyrazol-4-yl)methanone] | <18 pM
8 | C[C@]1(N2CCc3c(-c4cnc(N)nc4)nc(N4CCOCC4)nc32)CCN(C(=O)c2cn[nH]c2)C1 [Example 387, {(3S)-3-[4-(2-aminopyrimidin-5-yl)-2-(morpholin-4-yl)-5,6-dihydro-7H-pyrrolo[2,3-d]pyrimidin-7-yl]-3-methylpyrrolidin-1-yl}(1H-pyrazol-4-yl)methanone] | <18 pM
9 | C[C@]1(N2CCc3c(-c4cnc(N)nc4)nc(N4CCOCC4)nc32)CCN(C(=O)c2ncc[nH]2)C1 [Example 388, {(3S)-3-[4-(2-aminopyrimidin-5-yl)-2-(morpholin-4-yl)-5,6-dihydro-7H-pyrrolo[2,3-d]pyrimidin-7-yl]-3-methylpyrrolidin-1-yl}(1H-imidazol-2-yl)methanone] | <18 pM
10 | C[C@]1(N2CCc3c(-c4cnc(N)nc4)nc(N4CCOCC4)nc32)CCN(C(=O)c2cc[nH]n2)C1 [Example 389, {(3S)-3-[4-(2-aminopyrimidin-5-yl)-2-(morpholin-4-yl)-5,6-dihydro-7H-pyrrolo[2,3-d]pyrimidin-7-yl]-3-methylpyrrolidin-1-yl}(1H-pyrazol-3-yl)methanone] | <18 pM
11 | Cn1ccnc1C(=O)N1CC[C@](C)(N2CCc3c(-c4cnc(N)nc4)nc(N4CCOCC4)nc32)C1 [Example 390, {(3S)-3-[4-(2-aminopyrimidin-5-yl)-2-(morpholin-4-yl)-5,6-dihydro-7H-pyrrolo[2,3-d]pyrimidin-7-yl]-3-methylpyrrolidin-1-yl}(1-methyl-1H-imidazol-2-yl)methanone] | 84 pM
12 | Cn1ccc(C(=O)N2CC[C@](C)(N3CCc4c(-c5cnc(N)nc5)nc(N5CCOCC5)nc43)C2)n1 [Example 391, {(3S)-3-[4-(2-aminopyrimidin-5-yl)-2-(morpholin-4-yl)-5,6-dihydro-7H-pyrrolo[2,3-d]pyrimidin-7-yl]-3-methylpyrrolidin-1-yl}(1-methyl-1H-pyrazol-3-yl)methanone] | 22 pM
13 | CNC(=N)N1CC[C@](C)(N2CCc3c(-c4cnc(N)nc4)nc(N4CCOCC4)nc32)C1 [Example 392, (3S)-3-[4-(2-aminopyrimidin-5-yl)-2-(morpholin-4-yl)-5,6-dihydro-7H-pyrrolo[2,3-d]pyrimidin-7-yl]-N,3-dimethylpyrrolidine-1-carboximidamide] | 101 pM
14 | CCNC(=O)N1CC[C@@](C)(N2CCc3c(-c4cnc(N)nc4)nc(N4CCOCC4)nc32)C1 [Example 393, (3R)-3-[4-(2-aminopyrimidin-5-yl)-2-(morpholin-4-yl)-5,6-dihydro-7H-pyrrolo[2,3-d]pyrimidin-7-yl]-N-ethyl-3-methylpyrrolidine-1-carboxamide] | 85 pM
15 | CC(C)NC(=O)N1CC[C@@](C)(N2CCc3c(-c4cnc(N)nc4)nc(N4CCOCC4)nc32)C1 [Example 394, (3R)-3-[4-(2-aminopyrimidin-5-yl)-2-(morpholin-4-yl)-5,6-dihydro-7H-pyrrolo[2,3-d]pyrimidin-7-yl]-3-methyl-N-(propan-2-yl)pyrrolidine-1-carboxamide] | 112 pM
16 | CC(C)NC(=O)N1CC[C@](C)(N2CCc3c(-c4cnc(N)nc4)nc(N4CCOCC4)nc32)C1 [Example 395, (3S)-3-[4-(2-aminopyrimidin-5-yl)-2-(morpholin-4-yl)-5,6-dihydro-7H-pyrrolo[2,3-d]pyrimidin-7-yl]-3-methyl-N-(propan-2-yl)pyrrolidine-1-carboxamide] | 352 pM
17 | CC(C)(C)NC(=O)N1CC[C@@](C)(N2CCc3c(-c4cnc(N)nc4)nc(N4CCOCC4)nc32)C1 [Example 396, (3R)-3-[4-(2-aminopyrimidin-5-yl)-2-(morpholin-4-yl)-5,6-dihydro-7H-pyrrolo[2,3-d]pyrimidin-7-yl]-N-tert-butyl-3-methylpyrrolidine-1-carboxamide] | 121 pM
18 | CC(C)(C)NC(=O)N1CC[C@](C)(N2CCc3c(-c4cnc(N)nc4)nc(N4CCOCC4)nc32)C1 [Example 397, (3S)-3-[4-(2-aminopyrimidin-5-yl)-2-(morpholin-4-yl)-5,6-dihydro-7H-pyrrolo[2,3-d]pyrimidin-7-yl]-N-tert-butyl-3-methylpyrrolidine-1-carboxamide] | 101 pM
19 | C[C@@]1(N2CCc3c(-c4cnc(N)nc4)nc(N4CCOCC4)nc32)CCN(CC(N)=O)C1 [Example 398, 2-{(3R)-3-[4-(2-aminopyrimidin-5-yl)-2-(morpholin-4-yl)-5,6-dihydro-7H-pyrrolo[2,3-d]pyrimidin-7-yl]-3-methylpyrrolidin-1-yl}acetamide] | 411 pM
20 | C[C@]1(N2CCc3c(-c4cnc(N)nc4)nc(N4CCOCC4)nc32)CCN(CC(N)=O)C1 [Example 399, 2-{(3S)-3-[4-(2-aminopyrimidin-5-yl)-2-(morpholin-4-yl)-5,6-dihydro-7H-pyrrolo[2,3-d]pyrimidin-7-yl]-3-methylpyrrolidin-1-yl}acetamide] | 74 pM
21 | CNC(=O)CN1CC[C@@](C)(N2CCc3c(-c4cnc(N)nc4)nc(N4CCOCC4)nc32)C1 [Example 400, 2-{(3R)-3-[4-(2-aminopyrimidin-5-yl)-2-(morpholin-4-yl)-5,6-dihydro-7H-pyrrolo[2,3-d]pyrimidin-7-yl]-3-methylpyrrolidin-1-yl}-N-methylacetamide] | 781 pM
22 | CNC(=O)CN1CC[C@](C)(N2CCc3c(-c4cnc(N)nc4)nc(N4CCOCC4)nc32)C1 [Example 401, 2-{(3S)-3-[4-(2-aminopyrimidin-5-yl)-2-(morpholin-4-yl)-5,6-dihydro-7H-pyrrolo[2,3-d]pyrimidin-7-yl]-3-methylpyrrolidin-1-yl}-N-methylacetamide] | 109 pM
23 | CN(C)C(=O)CN1CC[C@@](C)(N2CCc3c(-c4cnc(N)nc4)nc(N4CCOCC4)nc32)C1 [Example 402, 2-{(3R)-3-[4-(2-aminopyrimidin-5-yl)-2-(morpholin-4-yl)-5,6-dihydro-7H-pyrrolo[2,3-d]pyrimidin-7-yl]-3-methylpyrrolidin-1-yl}-N,N-dimethylacetamide] | 872 pM
24 | CN(C)C(=O)CN1CC[C@](C)(N2CCc3c(-c4cnc(N)nc4)nc(N4CCOCC4)nc32)C1 [Example 403, 2-{(3S)-3-[4-(2-aminopyrimidin-5-yl)-2-(morpholin-4-yl)-5,6-dihydro-7H-pyrrolo[2,3-d]pyrimidin-7-yl]-3-methylpyrrolidin-1-yl}-N,N-dimethylacetamide] | 53 pM
25 | CCOC(=O)N1CC[C@@](C)(N2CCc3c(-c4cnc(N)nc4)nc(N4CCOCC4)nc32)C1 [Example 404, ethyl (3R)-3-[4-(2-aminopyrimidin-5-yl)-2-(morpholin-4-yl)-5,6-dihydro-7H-pyrrolo[2,3-d]pyrimidin-7-yl]-3-methylpyrrolidine-1-carboxylate] | 128 pM
26 | CCOC(=O)N1CC[C@](C)(N2CCc3c(-c4cnc(N)nc4)nc(N4CCOCC4)nc32)C1 [Example 405, ethyl (3S)-3-[4-(2-aminopyrimidin-5-yl)-2-(morpholin-4-yl)-5,6-dihydro-7H-pyrrolo[2,3-d]pyrimidin-7-yl]-3-methylpyrrolidine-1-carboxylate] | <18 pM
